US3974140A, “Ureidoacetamido-penicillins” (Bayer Aktiengesellschaft, priority 1970, dated 1976)

Legend:
Experiment in all cases: MIC, liquid medium test tube series dilution test
[1] = tested on: Staph. aureus 133; type: cell-based, Staphylococcus aureus; settings: Staph. aureus 133, 24 hours, 37°C
Procedure: (§1) The chemotherapeutic activity of the new penicillins was tested in vivo and in vitro. The in vitro inhibition values (MIC = minimum inhibition concentration (see Tables 1 and 2) were determined in a liquid medium in the test tube series dilution test, with readings being taken after 24 hours' incubation at 37°C. The MIC is indicated by the non-turbid test tube in the dilution series. A complete medium of the following composition was used as the nutrient medium:
(§2) The figures quoted in the Examples for the effectiveness against certain bacteria (units/ml) are minimum inhibitory concentrations in the test tube series dilution test after 24 hours' incubation.

[2] = tested on: E. coli A 261; type: cell-based; settings: E. coli A 261, 24 hours, 37°C
Procedure: as §1, §2

[3] = tested on: E. coli C 165; type: cell-based; settings: E. coli C 165, 24 hours, 37°C
Procedure: as §1, §2

[4] = tested on: Klebsiella 63; type: cell-based; settings: Klebsiella 63, 24 hours, 37°C
Procedure: as §1, §2

[5] = tested on: Streptoc. faec. ATCC 9790; type: cell-based; settings: Strep. faec. (Enterococcus) ATCC 9790, 24 hours, 37°C
Procedure: as §1, §2

[6] = tested on: Proteus vulg. 1017; type: cell-based, Proteus vulgaris; settings: Proteus vulg. 1017, 24 hours, 37°C
Procedure: as §1, §2

[7] = tested on: Psdm. aerug. Walter; type: cell-based, Pseudomonas aerug.; settings: 24 hours, 37°C
Procedure: as §1, §2

[8] = tested on: Proteus vulg. 3400; type: cell-based, Proteus vulgaris; settings: Proteus vulg. 3400, 24 hours, 37°C
Procedure: as §1, §2

[9] = tested on: E. coli 14; type: cell-based; settings: E. coli 14, 24 hours, 37°C
Procedure: as §1, §2

[10] = tested on: Psdm. aerug. Bonn; type: cell-based, Pseudomonas aerug.; settings: 24 hours, 37°C
Procedure: as §1, §2

[11] = tested on: E. coli 183/58; type: cell-based; settings: E. coli 183/58, 24 hours, 37°C
Procedure: as §1, §2

Molecule | MIC [1] | MIC [2] | MIC [3] | MIC [4] | MIC [5] | MIC [6] | MIC [7] | MIC [8] | MIC [9] [units/ml] | MIC [10] | MIC [11]
CC(=O)N(Cc1ccccc1)C(=O)N[C@@H](C(=O)N[C@@H]1C(=O)N2[C@@H]1SC(C)(C)[C@@H]2C(=O)O)c1ccccc1 [Example 87] | < 0.8 units/ml |  |  |  |  |  |  |  |  |  | 
CC1(C)S[C@@H]2[C@H](NC(=O)[C@H](NC(=O)N3CCCC3=O)c3ccccc3)C(=O)N2[C@H]1C(=O)O [Example 102, Sodium D(-)-β-(pyrrolid-2-on-1-yl-carbonylamino)-benzylpenicillin] | < 0.8 units/ml | > 500 units/ml |  |  |  |  |  |  |  |  | 
CC1(C)S[C@@H]2[C@H](NC(=O)[C@H](NC(=O)N(C(=O)c3ccccc3)c3ccccc3)c3ccccc3)C(=O)N2[C@H]1C(=O)O [Example 99 B, Sodium D(-)-α-(3-benzoyl-3-phenyl-ureido)-benzylpenicillin] | < 0.8 units/ml | > 500 units/ml | 20-100 units/ml | > 500 units/ml | 100-500 units/ml | ~500 units/ml | 100-500 units/ml |  |  |  | 
CN(C)C(=O)N(C)C(=O)NC(C(=O)N[C@@H]1C(=O)N2[C@@H]1SC(C)(C)[C@@H]2C(=O)O)c1cccs1 (stereo partly drawn) [Example 23, Sodium D,L-α-(3-dimethylaminocarbonyl-3-methyl-ureido)-2-thienylmethylpenicillin] | 0.8-4 units/ml | > 500 units/ml | 100-500 units/ml | > 500 units/ml | 100-500 units/ml |  | > 500 units/ml | > 500 units/ml |  |  | 
CC1(C)S[C@@H]2[C@H](NC(=O)[C@H](NC(=O)N3CCCCCC3=O)c3ccccc3)C(=O)N2[C@H]1C(=O)O [Example 101 B, Sodium D(-)-α-(hexahydroazepin-2-on-1-yl-carbonyl-amino)-benzylpenicillin] | < 0.8 units/ml | > 500 units/ml | 20-100 units/ml | 100-500 units/ml | ~20 units/ml | 100-500 units/ml | 100-500 units/ml |  |  |  | 
CN(C=O)C(=O)N[C@@H](C(=O)N[C@@H]1C(=O)N2[C@@H]1SC(C)(C)[C@@H]2C(=O)O)c1ccccc1 [Example 103, Sodium D(-)-β-(3-formyl-3-methyl-ureido)-benzylpenicillin] | < 0.8 units/ml | > 500 units/ml | 4-20 units/ml |  | 20-100 units/ml | 100-500 units/ml |  |  |  |  | 
CC1(C)S[C@@H]2[C@H](NC(=O)[C@H](NC(=O)NC(=O)c3ccccc3)c3ccccc3)C(=O)N2[C@H]1C(=O)O [sodium D(-)-α-(3-benzoylureido)benzylpenicillin, reference compound] |  |  |  |  |  |  |  | 50 units/ml | 6.25 | 25 units/ml | 
CN(C(=O)NC(C(=O)N[C@@H]1C(=O)N2[C@@H]1SC(C)(C)[C@@H]2C(=O)O)c1cccs1)C(=O)c1ccco1 (stereo partly drawn) [Example 22, Sodium D,L-α-(3-[2-furoyl]-3-methyl-ureido)-2-thienylmethylpenicillin] | < 0.8 units/ml | > 500 units/ml | 4-20 units/ml | 20-100 units/ml | ~ 20 units/ml |  | 20-100 units/ml | 4-20 units/ml |  |  | 
CCN(C(=O)N[C@@H](C(=O)N[C@@H]1C(=O)N2[C@@H]1SC(C)(C)[C@@H]2C(=O)O)c1ccccc1)C(=O)c1ccco1 [Example 93 B, Sodium D(-)-α-(3-[2-furoyl]-3-ethyl-ureido)-benzylpenicillin] | < 0.8 units/ml | > 500 units/ml |  |  |  |  |  |  |  |  | 
CCCN(C(=O)N[C@@H](C(=O)N[C@@H]1C(=O)N2[C@@H]1SC(C)(C)[C@@H]2C(=O)O)c1ccccc1)C(=O)c1ccco1 [Example 92 B, Sodium D (-)-α-(3-[2-furoyl]-3-n-propyl-ureido)-benzylpenicillin] | < 0.8 units/ml | > 500 units/ml |  |  |  |  |  |  |  |  | 
CSc1ccc(C(NC(=O)N(C)C(=O)c2ccccc2)C(=O)N[C@@H]2C(=O)N3[C@@H]2SC(C)(C)[C@@H]3C(=O)O)cc1 (stereo partly drawn) [Example 33, Sodium α-(3-benzoyl-3-methyl-ureido)-4-methylthiobenzylpenicillin] | < 0.8 units/ml | 100-500 units/ml | 4-20 units/ml | 4-20 units/ml | 20-100 units/ml | 4-20 units/ml | 4-20 units/ml |  |  |  | 
CN(C(=O)CCCCl)C(=O)NC(C(=O)N[C@@H]1C(=O)N2[C@@H]1SC(C)(C)[C@@H]2C(=O)O)c1cccs1 (stereo partly drawn) [Example 5, Sodium D,L-(3-γ-chlorobutyryl-3-methyl-ureido)-(2-thienyl)methylpenicillin] | < 0.8 units/ml | 100-500 units/ml | 4-20 units/ml | 20-100 units/ml | 100-500 units/ml |  | 20-100 units/ml | 20-100 units/ml |  |  | 
Sodium D(-)-α-(3-[2-furoyl]-3-phenyl-ureido)-benzylpenicillin [Example 105 B] | < 0.8 units/ml | > 500 units/ml | 4-20 units/ml | 100-500 units/ml | 20-100 units/ml | > 500 units/ml | > 500 units/ml |  |  |  | 
C=CCN(C(=O)NC(C(=O)N[C@@H]1C(=O)N2[C@@H]1SC(C)(C)[C@@H]2C(=O)O)c1cccs1)C(=O)c1ccccc1 (stereo partly drawn) [Example 21, Sodium D,L-α-(3-benzoyl-3-allyl-ureido)-2-thienylmethylpenicillin] | < 0.8 units/ml | > 500 units/ml | 20-100 units/ml | 20-100 units/ml | 100-500 units/ml |  | 100-500 units/ml | 20-100 units/ml |  |  | 
CN(C(=O)N[C@@H](C(=O)N[C@@H]1C(=O)N2[C@@H]1SC(C)(C)[C@@H]2C(=O)O)c1ccccc1)C(=O)c1ccco1 [Example 91, Sodium D(-)-α-(3-[2-furoyl]-3-methyl-ureido)-benzylpenicillin] | < 0.8 units/ml |  |  |  |  |  |  |  |  |  | 
CCCN(C(=O)N[C@@H](C(=O)N[C@@H]1C(=O)N2[C@@H]1SC(C)(C)[C@@H]2C(=O)O)c1ccccc1)C(=O)c1ccc(OC)c([N+](=O)[O-])c1 [Example 109, Sodium D(-)-α-(3-[3-nitro-4-methoxybenzoyl]-3-n-propyl-uredio)-benzylpenicillin] | 0.8 units/ml | > 500 units/ml | 4-20 units/ml | 100-500 units/ml | 4-20 units/ml | 20-100 units/ml | 50-100 units/ml |  |  |  | 
CCN(C(=O)N[C@@H](C(=O)N[C@@H]1C(=O)N2[C@@H]1SC(C)(C)[C@@H]2C(=O)O)c1ccccc1)C(=O)c1ccc(OC)c([N+](=O)[O-])c1 [Example 108, Sodium D(-)-α-(3-[3-nitro-4-methoxy-benzoyl]-3-ethyl-ureido)benzylpenicillin] | < 0.8 units/ml | > 500 units/ml | 4-20 units/ml | 100-500 units/ml | ~ 20 units/ml | 20-100 units/ml | 20-100 units/ml |  |  | 0.8-4 units/ml | 
Cc1noc(C)c1C(=O)N(C)C(=O)N[C@@H](C(=O)N[C@@H]1C(=O)N2[C@@H]1SC(C)(C)[C@@H]2C(=O)O)c1ccccc1 [Example 76] | < 0.8 units/ml |  |  |  |  |  |  |  |  |  | ~ 4 units/ml
COC(=O)N(C)C(=O)NC(C(=O)N[C@@H]1C(=O)N2[C@@H]1SC(C)(C)[C@@H]2C(=O)O)c1cccs1 (stereo partly drawn) [Example 20, Sodium D,L-α-(3-methoxycarbonyl-3-methyl-ureido)-2-thienylmethylpenicillin] | < 0.8 units/ml | > 500 units/ml | 20-100 units/ml | 20-100 units/ml | 20-100 units/ml |  | 100-500 units/ml | 100-500 units/ml |  |  | 
CN(C(=O)CCCl)C(=O)NC(C(=O)N[C@@H]1C(=O)N2[C@@H]1SC(C)(C)[C@@H]2C(=O)O)C1CC=CCC1 (stereo partly drawn) [Example 36, Sodium α-(3-β-chloropropionyl-3-methyl-ureido)-cyclohex-3-enylmethylpenicillin] | 4-20 units/ml | > 500 units/ml | 100-500 units/ml | > 500 units/ml | 100-500 units/ml | > 500 units/ml | > 500 units/ml |  |  |  | 
